Test results as given in paper PMC8524858, “Dual inhibition of αvβ6 and αvβ1 reduces fibrogenesis in lung tissue explants from patients with IPF” (Respiratory Research, 2021).

Experiments:
[1] = tested on: PCLSs prepared from bleomycin-challenged mouse lungs; assay: Col1a1 expression in PCLSs from bleomycin-challenged mouse lungs; type: cell-based; conditions: for inhibition of collagen mRNA expression: acutely injured mouse lungs, 3 days, PLN-74809 200 nM, GSK3008348 1000 nM, CWHM-12 1000 nM (Fig. 2B); for IC50: Mus musculus, 72 h, 3 days of treatment, extrapolation from dose-response curve of combined experiments (Fig. S4), read-out: minimum concentration required to reduce Col1a1 mRNA levels by 50%; for effect on Col1a1 gene expression: chronic bleomycin-challenged mouse lungs, 7 days of treatment, nintedanib and pirfenidone at approximate clinical Cmax (Fig. 6C); for concentration for 50% reduction in collagen gene expression relative to concentration approximating Cmax: dose titrations in PCLSs from bleomycin-challenged mouse lungs
Description: (§1) PCLSs were generated from explanted lung tissue from patients with IPF and cultured as previously described. Mouse PCLSs were generated and cultured as previously described. Messenger ribonucleic acid (mRNA) levels in lysates prepared from snap-frozen tissue slices were quantified via NanoString PlexSet reagents and nCounter SPRINT Profiler (NanoString; Seattle, WA, USA; Additional file 1: Table S2) or TaqMan primers/probes on a Bio-Rad CFX96 thermocycler (Bio-Rad; Hercules, CA, USA; Additional file 1: Table S3).
Mouse PCLSs were generated and cultured based on previously reported methods (E13). Briefly, mice were challenged with bleomycin (Hospira; Lake Forest, IL, USA or Teva; Toronto, ON, Canada), either acutely with a single dose (3 U/kg or 4 U/kg) or chronically with multiple doses (3 U/kg bleomycin followed by four 1 U/kg challenges at 2-week intervals). Fourteen days after the final bleomycin challenge, lungs were harvested and 200 μm-thick slices were cut using a Compresstome VF-300-0Z (Precisionary Instruments).
(§2) Slices from each individual core (human) or mouse were distributed among the treatment groups to control for variability in the fibrotic injury within the tissue. […] After 3 or 7 days in culture, slices were washed and snap-frozen. Viability of sentinel slices on Days 0/1 and 3/7 was determined using WST-1 Cell Proliferation Reagent (Sigma 5015944001; St Louis, MO, USA).
(§3) For all figures (except Fig. 2B, Fig. S2, and Fig. S4), snap-frozen tissue slices were incubated in one-third RLT buffer (Qiagen #79216; Venlo, Netherlands) supplemented with 2 mg/ml proteinase K (Sigma-Aldrich #3115887001; St Louis, MO, USA) at 55 °C for 2 h 45 min, with periodic vortexing to generate ribonucleic acid (RNA)-compatible tissue lysate. This lysate was incubated overnight with probes from a custom fibrosis gene panel and NanoString PlexSet reagents (Table S2). The following day, samples were analyzed on a NanoString nCounter SPRINT Profiler (NanoString; Seattle, WA, USA). Messenger RNA (mRNA) counts were normalized to housekeeping genes (GUSB, HPRT1, RPLP0, and/or POLR1B) and total mRNA counts, relative to vehicle-treated control from the same experiment, are reported.
For Figs. 2B, S2, and S4, RNA purification and qPCR were performed by Transcriptic, Inc. (Menlo Park, CA, USA) using a proprietary automated protocol. Briefly, RNA was purified on a KingFisher Flex system (Thermo Fisher) and qPCR was performed on a Bio-Rad CFX96 (Bio-Rad; Hercules, CA, USA) with TaqMan primers/probes (Thermo Fisher) listed in Table S3. Ct values were normalized to housekeeping genes (Rn18sRn45s and Hprt) and reported as ddCT and fold change versus the vehicle-treated samples.

[2] = tested on: αvβ1-induced TGF-β activation; assay: TGF-β co-culture assay, CHO-αv cells with MLEC luciferase reporter cells; type: cell-based, human; conditions: integrin αvβ1
Protocol: (§4) SW-β6 cells and MLECs or CHO-αv cells and MLECs were cultured in 96-well plates with test compounds or antibodies for 20 h at 37 °C in a 5% CO2 incubator. […] Measurement of MLEC luciferase production resulting from αvβ6- or αvβ1-mediated TGF-β activation was performed using the Bright-Glo Luciferase Assay System (Promega; Madison, WI, USA) according to manufacturer’s instruction. Luminescence was quantified by a Tecan Spark 10M plate reader. IC50 curves were generated using Dotmatics software suite with five-parameter logistic curve fitting. Geometric mean IC50 was calculated for each compound from multiple independent analyses.

[3] = tested on: PCLSs prepared from explanted lung tissue from patients with IPF; assay: Fibrotic gene expression in PCLSs from IPF lung explants; type: cell-based, human
Description: as §1
Human PCLSs were generated from lung tissue explants from patients with IPF undergoing transplant surgery and cultured based on previously reported methods (E7-E12). Slices of tissue (400 µm) were cut using a Compresstome VF-300-0Z (Precisionary Instruments; Natick, MA, USA).
as §2, §3

[4] = target: T1, human integrin αvβ5 (Homo sapiens, UniProt P06756+P18084); assay: Integrin ligand-binding assay, αvβ5 (vitronectin ligand)
T1 construct: purchased R&D Systems 2528-AV
T1 sequence (P06756 31-992 limits assumed): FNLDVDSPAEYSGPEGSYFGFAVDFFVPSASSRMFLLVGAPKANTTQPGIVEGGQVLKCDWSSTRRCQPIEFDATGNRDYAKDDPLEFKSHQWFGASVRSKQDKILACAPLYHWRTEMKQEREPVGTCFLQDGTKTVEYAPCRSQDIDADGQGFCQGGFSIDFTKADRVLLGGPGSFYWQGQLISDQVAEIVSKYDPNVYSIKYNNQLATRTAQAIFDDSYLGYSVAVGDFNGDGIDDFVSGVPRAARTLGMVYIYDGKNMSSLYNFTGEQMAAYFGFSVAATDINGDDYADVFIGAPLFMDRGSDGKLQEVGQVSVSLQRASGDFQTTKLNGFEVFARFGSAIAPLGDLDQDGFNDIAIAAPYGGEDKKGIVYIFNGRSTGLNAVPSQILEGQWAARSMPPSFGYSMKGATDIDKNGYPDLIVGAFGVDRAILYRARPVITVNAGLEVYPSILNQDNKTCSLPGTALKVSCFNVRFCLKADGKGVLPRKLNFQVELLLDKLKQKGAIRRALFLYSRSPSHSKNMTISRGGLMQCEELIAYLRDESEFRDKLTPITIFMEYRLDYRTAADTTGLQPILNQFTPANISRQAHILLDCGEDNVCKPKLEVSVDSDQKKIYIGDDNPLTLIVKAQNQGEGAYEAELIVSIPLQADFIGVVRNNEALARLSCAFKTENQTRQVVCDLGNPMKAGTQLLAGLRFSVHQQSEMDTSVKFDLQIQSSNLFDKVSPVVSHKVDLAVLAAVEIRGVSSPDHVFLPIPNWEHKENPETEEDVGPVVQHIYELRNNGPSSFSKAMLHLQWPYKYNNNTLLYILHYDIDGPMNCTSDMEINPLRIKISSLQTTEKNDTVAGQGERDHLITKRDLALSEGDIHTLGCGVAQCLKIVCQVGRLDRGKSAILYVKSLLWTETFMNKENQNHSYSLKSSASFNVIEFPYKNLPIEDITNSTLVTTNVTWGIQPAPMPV
T1 sequence (P18084 24-719 limits assumed): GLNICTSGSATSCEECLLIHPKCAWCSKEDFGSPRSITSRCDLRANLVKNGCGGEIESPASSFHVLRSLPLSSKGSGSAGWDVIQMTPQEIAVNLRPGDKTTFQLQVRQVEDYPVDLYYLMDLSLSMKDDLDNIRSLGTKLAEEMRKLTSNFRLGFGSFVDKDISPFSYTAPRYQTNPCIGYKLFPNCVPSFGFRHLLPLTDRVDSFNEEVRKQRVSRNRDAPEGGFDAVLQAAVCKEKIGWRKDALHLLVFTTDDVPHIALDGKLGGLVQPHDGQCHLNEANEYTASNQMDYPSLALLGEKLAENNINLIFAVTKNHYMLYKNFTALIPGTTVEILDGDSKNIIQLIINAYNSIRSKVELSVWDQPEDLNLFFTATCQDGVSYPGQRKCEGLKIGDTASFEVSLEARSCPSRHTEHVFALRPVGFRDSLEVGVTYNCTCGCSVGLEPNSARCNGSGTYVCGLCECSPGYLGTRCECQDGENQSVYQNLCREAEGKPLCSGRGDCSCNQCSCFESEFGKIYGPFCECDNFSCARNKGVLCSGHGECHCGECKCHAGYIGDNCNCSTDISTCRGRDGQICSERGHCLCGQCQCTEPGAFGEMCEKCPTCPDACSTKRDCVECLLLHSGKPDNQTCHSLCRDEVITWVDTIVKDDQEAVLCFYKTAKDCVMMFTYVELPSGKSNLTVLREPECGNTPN
Protocol: (§5) Integrin ligand-binding assays were performed similar to that previously described.
(§6) Microplates were coated with recombinant human integrins dissolved in PBS (2 µg/ml, overnight at room temperature). Following removal of the coating solution, plates were washed with PBS. Plates were blocked with 200 µL/well of blocking buffer (2% bovine serum albumin [BSA] in PBS) at 37 °C for 1 h. […] Plates were incubated for 2 h at 25 °C, washed, and incubated for 1 h with biotin-labeled anti-fibronectin or anti-LAP antibodies (for αvβ1 or αvβ6/αvβ8, respectively).

[5] = target: T2, human integrin αvβ1 (Homo sapiens, UniProt P05556+P06756); assay: Integrin ligand-binding assay, αvβ1 (fibronectin ligand)
T2 construct: purchased ACROBiosystems or R&D Systems IT1-H52E1 or 6579-AVB
T2 sequence (P06756 31-992 limits assumed): as the sequence (P06756 31-992 limits assumed) above
T2 sequence (P05556 21-728 limits assumed): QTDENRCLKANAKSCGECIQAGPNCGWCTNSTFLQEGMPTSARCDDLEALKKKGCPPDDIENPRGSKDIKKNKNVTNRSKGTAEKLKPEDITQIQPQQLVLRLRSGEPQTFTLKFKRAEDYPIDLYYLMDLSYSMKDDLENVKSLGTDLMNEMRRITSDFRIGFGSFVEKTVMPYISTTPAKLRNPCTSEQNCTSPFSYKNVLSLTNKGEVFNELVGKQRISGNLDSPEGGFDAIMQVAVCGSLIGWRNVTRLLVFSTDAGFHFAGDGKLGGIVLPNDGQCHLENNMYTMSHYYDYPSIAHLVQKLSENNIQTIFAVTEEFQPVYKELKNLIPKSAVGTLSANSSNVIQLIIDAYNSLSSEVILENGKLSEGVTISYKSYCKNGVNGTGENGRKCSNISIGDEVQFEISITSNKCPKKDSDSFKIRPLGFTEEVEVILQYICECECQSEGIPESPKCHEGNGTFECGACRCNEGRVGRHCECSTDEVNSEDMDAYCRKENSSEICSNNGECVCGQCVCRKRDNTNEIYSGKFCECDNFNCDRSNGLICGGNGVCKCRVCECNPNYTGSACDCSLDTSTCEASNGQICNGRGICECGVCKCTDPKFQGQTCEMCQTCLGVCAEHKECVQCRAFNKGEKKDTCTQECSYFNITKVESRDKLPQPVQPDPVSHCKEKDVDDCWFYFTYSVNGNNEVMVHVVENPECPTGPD
Protocol: as §5, §6

[6] = target: T3, human integrin αvβ3 (Homo sapiens, UniProt P05106+P06756); assay: Integrin ligand-binding assay, αvβ3 (vitronectin ligand)
T3 construct: purchased R&D Systems 3050-AV
T3 sequence (P06756 31-992 limits assumed): as the sequence (P06756 31-992 limits assumed) above
T3 sequence (P05106 27-718 limits assumed): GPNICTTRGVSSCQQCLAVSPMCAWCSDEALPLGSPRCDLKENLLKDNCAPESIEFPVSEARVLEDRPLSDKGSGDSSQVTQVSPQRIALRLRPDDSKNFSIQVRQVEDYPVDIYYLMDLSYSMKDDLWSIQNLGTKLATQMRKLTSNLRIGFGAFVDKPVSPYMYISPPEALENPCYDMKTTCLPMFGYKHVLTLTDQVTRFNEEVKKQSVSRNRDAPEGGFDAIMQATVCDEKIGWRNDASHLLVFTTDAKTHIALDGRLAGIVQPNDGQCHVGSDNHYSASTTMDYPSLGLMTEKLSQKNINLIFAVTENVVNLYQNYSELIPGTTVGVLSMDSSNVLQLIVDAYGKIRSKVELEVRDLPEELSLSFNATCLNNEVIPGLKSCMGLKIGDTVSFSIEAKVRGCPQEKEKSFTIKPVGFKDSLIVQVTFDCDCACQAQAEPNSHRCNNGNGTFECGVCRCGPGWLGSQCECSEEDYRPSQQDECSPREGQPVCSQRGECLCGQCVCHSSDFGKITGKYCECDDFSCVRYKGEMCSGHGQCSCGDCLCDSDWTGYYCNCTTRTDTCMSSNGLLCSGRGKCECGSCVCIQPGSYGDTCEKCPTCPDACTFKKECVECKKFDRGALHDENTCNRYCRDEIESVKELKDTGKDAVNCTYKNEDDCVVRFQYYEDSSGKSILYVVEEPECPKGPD
Protocol: as §5, §6

[7] = target: T4, αvβ6-induced TGF-β activation (Homo sapiens, UniProt P06756+P18564); assay: TGF-β co-culture assay, SW-β6 cells with MLEC luciferase reporter cells; type: cell-based; conditions: integrin αvβ6
T4 construct: expressed in transfected cells; host or cells: SW480 cells stably transfected with β6 (SW-β6), co-cultured with MLEC reporter cells
Protocol: as §4

[8] = target: T5, human integrin αvβ6 (Homo sapiens, UniProt P06756+P18564); assay: Integrin ligand-binding assay, αvβ6 (LAP ligand)
T5 construct: purchased ACROBiosystems or R&D Systems IT6-H52E1 or 3817-AV
T5 sequence (P06756 31-992 limits assumed): as the sequence (P06756 31-992 limits assumed) above
T5 sequence (P18564 22-707 limits assumed): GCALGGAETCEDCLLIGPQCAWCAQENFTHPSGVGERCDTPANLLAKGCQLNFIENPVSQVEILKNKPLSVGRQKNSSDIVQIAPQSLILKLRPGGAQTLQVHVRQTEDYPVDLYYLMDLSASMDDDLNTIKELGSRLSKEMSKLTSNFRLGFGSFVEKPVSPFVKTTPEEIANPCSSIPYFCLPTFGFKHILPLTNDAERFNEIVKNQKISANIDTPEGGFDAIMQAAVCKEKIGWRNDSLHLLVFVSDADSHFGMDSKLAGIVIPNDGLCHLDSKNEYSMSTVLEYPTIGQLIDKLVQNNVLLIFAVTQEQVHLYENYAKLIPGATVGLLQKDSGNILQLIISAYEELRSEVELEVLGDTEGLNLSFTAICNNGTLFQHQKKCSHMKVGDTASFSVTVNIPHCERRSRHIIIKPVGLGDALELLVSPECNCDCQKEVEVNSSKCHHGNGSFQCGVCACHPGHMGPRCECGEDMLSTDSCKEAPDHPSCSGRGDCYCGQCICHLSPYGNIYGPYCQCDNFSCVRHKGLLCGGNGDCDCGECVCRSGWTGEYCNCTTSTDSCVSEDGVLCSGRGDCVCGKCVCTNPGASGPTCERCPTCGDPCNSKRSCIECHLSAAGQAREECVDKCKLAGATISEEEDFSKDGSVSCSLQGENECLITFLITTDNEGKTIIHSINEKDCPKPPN
Protocol: as §5, §6

[9] = target: T6, human integrin αvβ8 (Homo sapiens, UniProt P06756+P26012); assay: Integrin ligand-binding assay, αvβ8 (LAP ligand)
T6 construct: purchased R&D Systems 4135-AV
T6 sequence (P06756 31-992 limits assumed): as the sequence (P06756 31-992 limits assumed) above
T6 sequence (P26012 43-684 limits assumed): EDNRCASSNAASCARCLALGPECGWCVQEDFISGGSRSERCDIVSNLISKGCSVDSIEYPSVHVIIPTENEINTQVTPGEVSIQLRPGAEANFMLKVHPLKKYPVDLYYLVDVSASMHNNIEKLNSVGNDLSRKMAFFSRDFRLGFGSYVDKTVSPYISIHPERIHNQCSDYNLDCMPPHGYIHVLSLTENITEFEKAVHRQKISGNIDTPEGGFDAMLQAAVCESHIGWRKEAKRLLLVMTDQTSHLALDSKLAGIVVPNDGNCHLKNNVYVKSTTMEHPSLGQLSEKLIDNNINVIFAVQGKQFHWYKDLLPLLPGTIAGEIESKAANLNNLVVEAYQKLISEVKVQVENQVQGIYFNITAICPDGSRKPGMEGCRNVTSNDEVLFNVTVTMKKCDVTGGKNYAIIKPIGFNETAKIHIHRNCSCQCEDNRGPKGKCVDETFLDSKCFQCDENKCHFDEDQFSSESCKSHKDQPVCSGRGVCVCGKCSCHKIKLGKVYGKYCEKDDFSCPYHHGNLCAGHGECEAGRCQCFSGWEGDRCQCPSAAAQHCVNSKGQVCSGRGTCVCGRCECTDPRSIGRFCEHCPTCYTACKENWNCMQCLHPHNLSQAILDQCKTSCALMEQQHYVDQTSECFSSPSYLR
Protocol: as §5, §6

[10] = parameters: method as in PMID 25504994; conditions: patients with IPF; read-out: approximate clinical maximum observed drug concentration (Cmax); cited from earlier work
[11] = 7 days, PLN-74809 200 nM, nintedanib 75 nM, pirfenidone 50 µM, vs DMSO (Fig. 6A)

Cc1cc(C)n(-c2cccc([C@H](CC(=O)O)CN3CC[C@@H](CCc4ccc5c(n4)NCCC5)C3)c2)n1 [GSK3008348, (S)-3-(3-(3,5-Dimethyl-1 H-pyrazol-1-yl)phenyl)-4-((R)-3-(2-(5,6,7,8-tetrahydro-1,8-naphthyridin-2-yl)ethyl)pyrrolidin-1-yl)butanoic acid]
inhibition of collagen mRNA expression [1]: no additional reduction
IC50 [2]: 17.4 nM

Cc1cccc(-c2[nH]ncc2-c2ccc(F)c(-c3cnn(CCO)c3)c2)n1 [Compound R-268712, reference compound]
reduction of COL1A1 mRNA expression ([3]; 7-day incubation, Compound A 471 nM, 3G9 0.5 µg/ml, PLN-74809 1.82 µM, ALK5i R-268712 1 µM, vs vehicle (Fig. 1A)): ~ 80%

CC(C)(C)c1cc(Br)cc([C@H](CC(=O)O)NC(=O)CNC(=O)c2cc(O)cc(NC3=NCC(O)CN3)c2)c1 (stereo partly shown) [CWHM-12, reference compound]
IC50 [4]: 5.3 nM
Fold selectivity (vs αvβ1) ([4]; ligand binding): 4.1×
IC50 [5]: 1.3 nM
Fold selectivity (vs αvβ1) ([5]; ligand binding): 1×
IC50 [6]: 0.7 nM
Fold selectivity (vs αvβ1) ([6]; ligand binding): 0.5×
Fold selectivity (vs αvβ1) ([7]; TGF-β activation): 159×
IC50 [7]: 318 nM
inhibition of collagen mRNA expression [1]: no additional reduction
Fold selectivity (vs αvβ1) ([2]; TGF-β activation): 1×
IC50 [2]: 2 nM
IC50 [8]: 6.1 nM
Fold selectivity (vs αvβ1) ([8]; ligand binding): 4.7×
IC50 [9]: 7.3 nM
Fold selectivity (vs αvβ1) ([9]; ligand binding): 5.6×

Cc1ccc(=O)n(-c2ccccc2)c1 [pirfenidone]
Cmax [10]: ~50 µM
IC50 [1]: 678000 nM
effect on Col1a1 gene expression [1]: did not significantly alter
concentration for 50% reduction in collagen gene expression relative to concentration approximating Cmax [1]: > 10 ×
reduction of COL1A1 mRNA expression [3, 11]: no effect

COC(=O)c1ccc2c(c1)NC(=O)/C2=C(\Nc1ccc(N(C)C(=O)CN2CCN(C)CC2)cc1)c1ccccc1 [nintedanib]
Cmax [10]: ~0.075 µM
IC50 [1]: 897 nM
effect on Col1a1 gene expression [1]: did not significantly alter
concentration for 50% reduction in collagen gene expression relative to concentration approximating Cmax [1]: > 10 ×
reduction of COL1A1 mRNA expression [3, 11]: no effect
